Experimental data taken from patent US8501446B2 (Vertex Pharmaceuticals Incorporated, priority 2004, dated 2013).
Where two headings read alike, the source gives them in different places.

Experiments:
Format in all cases: biochemical
JAK3 = biological target: T1, JAK3 (Homo sapiens, UniProt P52333); experiment: JAK3 inhibition assay (standard radioactive enzyme assay); conditions: average Ki if more than one value determined
T1 sequence (P52333 1-1124): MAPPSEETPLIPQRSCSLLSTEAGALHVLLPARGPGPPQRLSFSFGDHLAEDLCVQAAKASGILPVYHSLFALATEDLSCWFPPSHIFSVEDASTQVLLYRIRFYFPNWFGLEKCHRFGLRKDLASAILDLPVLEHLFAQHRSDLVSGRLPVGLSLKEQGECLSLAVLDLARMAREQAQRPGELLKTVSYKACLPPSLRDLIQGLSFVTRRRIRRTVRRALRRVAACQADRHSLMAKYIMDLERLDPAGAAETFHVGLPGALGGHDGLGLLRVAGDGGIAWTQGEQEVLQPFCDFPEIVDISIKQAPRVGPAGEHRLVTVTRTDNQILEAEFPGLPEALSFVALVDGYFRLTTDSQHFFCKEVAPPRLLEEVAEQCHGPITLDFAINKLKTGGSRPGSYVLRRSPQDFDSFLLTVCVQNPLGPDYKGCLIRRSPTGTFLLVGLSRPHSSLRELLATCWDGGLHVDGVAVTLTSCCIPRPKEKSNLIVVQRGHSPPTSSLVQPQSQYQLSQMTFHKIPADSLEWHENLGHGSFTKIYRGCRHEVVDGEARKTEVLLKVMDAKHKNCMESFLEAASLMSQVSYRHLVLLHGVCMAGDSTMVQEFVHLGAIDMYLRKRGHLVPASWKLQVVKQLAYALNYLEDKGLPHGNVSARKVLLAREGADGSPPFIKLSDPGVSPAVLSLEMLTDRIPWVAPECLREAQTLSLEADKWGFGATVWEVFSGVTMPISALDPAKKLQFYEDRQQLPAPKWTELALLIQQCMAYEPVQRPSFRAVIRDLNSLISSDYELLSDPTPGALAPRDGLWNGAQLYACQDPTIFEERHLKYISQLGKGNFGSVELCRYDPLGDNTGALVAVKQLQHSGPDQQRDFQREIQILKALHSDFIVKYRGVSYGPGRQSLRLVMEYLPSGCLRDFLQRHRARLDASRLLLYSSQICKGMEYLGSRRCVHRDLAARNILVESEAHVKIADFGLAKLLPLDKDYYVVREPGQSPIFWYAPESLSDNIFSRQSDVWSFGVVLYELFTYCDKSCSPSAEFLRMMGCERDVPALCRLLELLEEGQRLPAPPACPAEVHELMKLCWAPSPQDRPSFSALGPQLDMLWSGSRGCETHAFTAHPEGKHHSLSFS

JAK2 = JAK2 (Homo sapiens, UniProt O60674); experiment: JAK2 inhibition assay (radioactive enzyme assay, as for JAK3); conditions: average Ki if more than one value determined
Method in brief: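 Both kinases: poly(Glu)4Tyr substrate in 100 mM HEPES pH 7.4, 10 mM MgCl2, 1 mM DTT. Run 20 min at 25° C, TCA stop, filter-bound ³³P counted, Ki(app) fitted after background subtraction. JAK3: final [γ-³³P]ATP 5 μM, enzyme added as 2 nM solution. JAK2: final poly(Glu)4Tyr 15 μM, final ATP 12 μM.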

ROCK = ROCK (Homo sapiens, UniProt Q13464); experiment: ROCK inhibition assay, standard radioactive enzyme assay ("33P")
Experimental: Some compounds were screened for their ability to inhibit ROCK using a standard radioactive enzyme assay. Assays were carried out in a solution containing 100 mM HEPES (pH 7.5), 10 mM MgCl2, 25 mM NaCl, 2 mM DTT, and 1.5% DMSO. Final substrate concentrations in the assay were 13 μM [γ-^33P] ATP (25 mCi ^33P ATP/mmol ATP, Perkin Elmer, Cambridge, Mass./Sigma Chemicals, St Louis, Mo.) and 27 μM Myelin Basic Protein (MBP). Final enzyme concentration in the assay was 5 nM ROCK. Assays were carried out at room temperature. 1.5 μl of DMSO stock containing serial dilutions of the compound of the present invention (concentrations ranging from 10 μM to 2.6 nM) was placed in a 96 well plate. 50 μl of Solution 1 (100 mM HEPES (pH 7.5), 10 mM MgCl2, […]) was added to the plate. The reaction was initiated by addition of 50 μl of Solution 2 (100 mM HEPES (pH 7.5), 10 mM MgCl2, 4 mM DTT, […] and 10 nM ROCK). After 2 hours the reaction was quenched with 50 μL of 30% trichloroacetic acid (TCA, Fisher) containing 9 mM ATP. Transfer of 140 μL of the quenched reaction to a glass fiber filter plate (Corning, Cat. No. 3511) was followed by washing 3 times with 5% TCA. 50 μL of Optima Gold scintillation fluid (Perkin Elmer) was added and the plates were counted on a Top Count (Perkin Elmer). After removing mean background values for all of the data points the data was fit using Prism software to obtain a Ki(app).

[1] = biological target: T2, full length Aurora-A (AA 1-403) (Homo sapiens, UniProt O14965); experiment: Aurora-A inhibition assay, standard coupled enzyme system; conditions: average Ki if more than one value determined
T2 construct: full length Aurora-A (AA 1-403)
T2 sequence (O14965 1-403): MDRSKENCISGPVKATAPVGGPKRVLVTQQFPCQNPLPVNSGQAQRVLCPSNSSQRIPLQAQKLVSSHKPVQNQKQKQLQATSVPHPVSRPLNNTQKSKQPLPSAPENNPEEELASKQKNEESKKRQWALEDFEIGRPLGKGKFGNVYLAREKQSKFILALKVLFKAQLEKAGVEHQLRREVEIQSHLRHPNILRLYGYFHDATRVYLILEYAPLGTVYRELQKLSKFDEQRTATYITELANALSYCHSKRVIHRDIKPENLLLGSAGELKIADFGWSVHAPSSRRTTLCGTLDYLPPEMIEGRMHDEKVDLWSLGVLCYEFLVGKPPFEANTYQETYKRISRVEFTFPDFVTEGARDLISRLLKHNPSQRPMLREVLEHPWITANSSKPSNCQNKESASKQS

ROCK I (AA 6-553) = biological target: T3, ROCK I (AA 6-553) (Homo sapiens, UniProt Q13464); experiment: ROCK inhibition assay, standard coupled enzyme system ("Enzyme"); conditions: enzyme-linked assay
T3 construct: ROCK I (AA 6-553)
Method in brief: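 ROCK I (AA 6-553) at 45 nM and 30 °C with 45 μM ATP and 200 μM peptide, in 100 mM HEPES pH 7.5, 10 mM MgCl2, 25 mM NaCl, 2 mM DTT, 1.5% DMSO. ADP output read by a PK/LDH coupled system: 2.5 mM PEP, 350 μM NADH, 30 μg/ml PK, 10 μg/ml LDH.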

JAK2, sequence (O60674 whole entry, species assumed): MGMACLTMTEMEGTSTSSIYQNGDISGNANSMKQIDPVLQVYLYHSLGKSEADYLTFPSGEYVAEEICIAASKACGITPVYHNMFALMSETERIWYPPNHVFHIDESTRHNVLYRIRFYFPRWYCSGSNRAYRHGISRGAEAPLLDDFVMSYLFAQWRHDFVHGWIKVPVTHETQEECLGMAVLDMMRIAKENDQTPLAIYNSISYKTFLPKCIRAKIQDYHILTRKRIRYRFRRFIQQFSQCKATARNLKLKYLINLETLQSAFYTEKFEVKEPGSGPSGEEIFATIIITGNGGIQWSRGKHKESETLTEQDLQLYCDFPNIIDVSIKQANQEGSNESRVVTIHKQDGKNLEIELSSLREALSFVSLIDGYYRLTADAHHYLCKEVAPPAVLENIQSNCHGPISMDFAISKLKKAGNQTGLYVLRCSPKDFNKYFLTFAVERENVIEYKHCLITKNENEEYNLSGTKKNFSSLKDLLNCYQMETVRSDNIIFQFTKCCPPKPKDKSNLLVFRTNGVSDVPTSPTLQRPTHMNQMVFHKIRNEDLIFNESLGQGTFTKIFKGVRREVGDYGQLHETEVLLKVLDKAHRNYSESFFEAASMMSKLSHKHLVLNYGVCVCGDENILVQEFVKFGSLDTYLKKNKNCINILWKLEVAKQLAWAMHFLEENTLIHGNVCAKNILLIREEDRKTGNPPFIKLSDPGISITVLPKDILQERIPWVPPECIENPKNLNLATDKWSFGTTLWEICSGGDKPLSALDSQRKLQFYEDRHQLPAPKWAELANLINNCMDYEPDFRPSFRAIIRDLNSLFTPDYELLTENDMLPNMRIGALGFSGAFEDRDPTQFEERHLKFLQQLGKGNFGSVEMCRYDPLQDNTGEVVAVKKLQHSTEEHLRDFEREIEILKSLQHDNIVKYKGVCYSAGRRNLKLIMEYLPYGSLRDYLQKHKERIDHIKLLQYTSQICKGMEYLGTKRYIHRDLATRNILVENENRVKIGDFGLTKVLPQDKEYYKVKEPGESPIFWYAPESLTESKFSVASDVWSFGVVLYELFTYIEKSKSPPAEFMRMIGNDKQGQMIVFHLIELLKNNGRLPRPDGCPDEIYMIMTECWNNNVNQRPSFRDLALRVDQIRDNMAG
ROCK, sequence (Q13464 whole entry): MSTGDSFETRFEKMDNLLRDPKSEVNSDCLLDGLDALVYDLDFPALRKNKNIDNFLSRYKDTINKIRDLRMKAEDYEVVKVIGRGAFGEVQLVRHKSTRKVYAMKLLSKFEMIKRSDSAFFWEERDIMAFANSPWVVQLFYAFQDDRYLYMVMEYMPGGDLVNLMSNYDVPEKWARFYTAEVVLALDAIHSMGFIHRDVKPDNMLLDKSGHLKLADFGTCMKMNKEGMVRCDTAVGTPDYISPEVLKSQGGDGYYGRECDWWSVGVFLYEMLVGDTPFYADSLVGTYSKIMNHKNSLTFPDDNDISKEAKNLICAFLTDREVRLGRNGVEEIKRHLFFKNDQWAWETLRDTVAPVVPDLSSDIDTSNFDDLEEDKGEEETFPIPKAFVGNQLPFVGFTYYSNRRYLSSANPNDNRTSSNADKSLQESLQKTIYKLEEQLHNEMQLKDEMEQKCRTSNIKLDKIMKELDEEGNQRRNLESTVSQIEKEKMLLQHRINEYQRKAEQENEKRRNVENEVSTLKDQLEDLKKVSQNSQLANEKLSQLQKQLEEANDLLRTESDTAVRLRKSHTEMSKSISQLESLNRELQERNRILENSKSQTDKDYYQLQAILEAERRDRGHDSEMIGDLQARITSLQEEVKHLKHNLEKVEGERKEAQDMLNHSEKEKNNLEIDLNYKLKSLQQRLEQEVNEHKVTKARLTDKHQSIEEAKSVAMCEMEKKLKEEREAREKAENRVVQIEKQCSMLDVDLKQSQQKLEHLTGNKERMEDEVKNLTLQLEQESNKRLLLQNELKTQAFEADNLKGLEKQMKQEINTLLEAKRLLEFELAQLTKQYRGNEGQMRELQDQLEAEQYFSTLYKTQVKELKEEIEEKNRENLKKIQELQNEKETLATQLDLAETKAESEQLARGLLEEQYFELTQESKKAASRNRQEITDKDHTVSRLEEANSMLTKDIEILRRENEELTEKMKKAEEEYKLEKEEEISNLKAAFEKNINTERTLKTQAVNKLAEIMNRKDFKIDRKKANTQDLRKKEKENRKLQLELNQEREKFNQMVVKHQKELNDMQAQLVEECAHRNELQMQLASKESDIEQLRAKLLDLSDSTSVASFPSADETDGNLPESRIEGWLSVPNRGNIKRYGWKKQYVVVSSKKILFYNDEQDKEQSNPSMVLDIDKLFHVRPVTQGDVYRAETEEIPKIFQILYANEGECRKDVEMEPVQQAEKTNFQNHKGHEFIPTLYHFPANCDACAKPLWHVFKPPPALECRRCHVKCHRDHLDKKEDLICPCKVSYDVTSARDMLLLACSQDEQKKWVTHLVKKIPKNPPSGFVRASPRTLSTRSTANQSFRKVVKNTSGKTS
T3 sequence (Q13464 6-553, species assumed): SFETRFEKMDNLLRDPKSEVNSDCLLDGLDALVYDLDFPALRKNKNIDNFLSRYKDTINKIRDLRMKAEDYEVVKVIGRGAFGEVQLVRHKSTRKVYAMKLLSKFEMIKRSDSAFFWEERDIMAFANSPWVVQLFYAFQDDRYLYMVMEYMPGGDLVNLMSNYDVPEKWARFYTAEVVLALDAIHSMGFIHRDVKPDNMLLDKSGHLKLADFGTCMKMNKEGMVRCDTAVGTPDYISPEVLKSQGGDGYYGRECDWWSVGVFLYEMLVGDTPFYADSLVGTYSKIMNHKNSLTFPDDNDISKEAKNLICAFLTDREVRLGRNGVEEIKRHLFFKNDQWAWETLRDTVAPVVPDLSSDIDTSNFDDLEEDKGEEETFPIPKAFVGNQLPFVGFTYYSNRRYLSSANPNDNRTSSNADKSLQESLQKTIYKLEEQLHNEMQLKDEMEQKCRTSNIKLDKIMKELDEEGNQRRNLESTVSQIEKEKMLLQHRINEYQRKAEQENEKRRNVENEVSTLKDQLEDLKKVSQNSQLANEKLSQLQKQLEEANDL

Row | Ki (JAK3) [nM] | Ki (JAK2) [nM] | Ki (ROCK) [nM] | Ki [1] [nM] | Ki (JAK3; Ki(app)) [nM] | Ki (JAK2; Ki(app)) [nM] | Ki (ROCK; Ki(app)) [nM] | Ki (ROCK I (AA 6-553)) [nM] | Structure (SMILES)
1 | < 500 | < 500 | < 500 | – | – | – | – | – | CC(=O)N1CCCN(c2nccc(-c3c[nH]c4ncc(-c5cccnc5)cc34)n2)CC1 [Compound 3]
2 | < 500 | < 500 | < 500 | < 500 | – | – | – | – | Clc1cnc2[nH]cc(-c3ccnc(NCc4ccccc4)n3)c2c1 [Compound 4]
3 | < 500 | < 500 | < 500 | – | – | – | – | – | COc1cnc2[nH]cc(-c3cc(NCc4ccccc4)ncn3)c2c1 [Compound 12]
4 | < 500 | < 500 | < 500 | 500 to 5000 | – | – | – | – | COc1cnc2[nH]cc(-c3cc(N[C@@H](C)c4ccccc4)ncn3)c2c1 [Compound 14]
5 | 500 to 5000 | 500 to 5000 | 500 to 5000 | – | – | – | – | – | C[C@@H]1CCN(Cc2ccccc2)CC1N(C)c1cc(-c2c[nH]c3ncccc23)ncn1 (stereo partly drawn) [Compound 15]
6 | 500 to 5000 | 500 to 5000 | < 500 | – | – | – | – | – | C[C@@H]1CCNCC1N(C)c1cc(-c2c[nH]c3ncccc23)ncn1 (stereo partly drawn) [Compound 17]
7 | < 500 | < 500 | < 500 | – | – | – | – | – | Clc1cccc(CNc2cc(-c3c[nH]c4ncccc34)ncn2)c1 [Compound 21]
8 | < 500 | < 500 | < 500 | – | – | – | – | – | FC(F)(F)c1cccc(CNc2cc(-c3c[nH]c4ncccc34)ncn2)c1 [Compound 22]
9 | < 500 | < 500 | < 500 | – | – | – | – | – | CN(Cc1ccccc1)c1cc(-c2c[nH]c3ncccc23)ncn1 [Compound 26]
10 | < 500 | < 500 | < 500 | – | – | – | – | – | Nc1cccc(CNc2cc(-c3c[nH]c4ncccc34)ncn2)c1 [Compound 28]
11 | – | – | – | < 500 | – | – | < 500 | – | COc1cc(-c2c[nH]c3ncccc23)ccc1C(N)=O [Compound 31, 2-Methoxy-4-(1H-pyrrolo[2,3-b]pyridin-3-yl)-benzamide]
12 | < 500 | < 500 | < 500 | – | – | – | – | – | CCS(=O)(=O)N1CCCN(c2nccc(-c3c[nH]c4ncc(OC)cc34)n2)CC1 [Compound 31]
13 | < 500 | < 500 | 500 to 5000 | – | – | – | – | < 500 | CCCOC(=O)N1CCCN(c2nccc(-c3c[nH]c4ncc(OC)cc34)n2)CC1 [Compound 34]
14 | < 500 | < 500 | < 500 | – | – | – | – | 500 to 5000 | CC(=O)N1[C@H](C)CN(c2cccc(-c3c[nH]c4ncc(NC(=O)OC(C)(C)C)cc34)n2)C[C@@H]1C [Compound 37]
15 | – | – | 500 to 5000 | < 500 | – | – | – | – | Brc1cnc2[nH]c(-c3ccccc3)c(-c3ccccc3)c2c1 [Compound 211]
16 | – | – | 500 to 5000 | < 500 | – | – | – | – | COc1ccc(OC)c(-c2c[nH]c3ncc(-c4ccccc4)cc23)c1 [Compound 216]
17 | – | – | 500 to 5000 | < 500 | – | – | – | 500 to 5000 | Brc1cnc2[nH]c(-c3ccccc3)c(-c3ccc(N4CCOCC4)cc3)c2c1 [Compound 217]

More lines, now with the values behind:

Row | Structure (SMILES) | Ki (JAK3) [nM] | Ki (JAK2) [nM] | Ki (ROCK) [nM] | Ki [1] [nM] | Ki (JAK3; Ki(app)) [nM] | Ki (JAK2; Ki(app)) [nM] | Ki (ROCK; Ki(app)) [nM] | Ki (ROCK I (AA 6-553)) [nM]
18 | CC(=O)N1CCCN(c2nccc(-c3c[nH]c4ncc(C(N)=O)cc34)n2)CC1 [Compound 1] | < 500 | < 500 | 500 to 5000 | – | – | – | – | –
19 | c1ccc(CNc2nccc(-c3c[nH]c4ncc(-c5cccnc5)cc34)n2)cc1 [Compound 2] | < 500 | < 500 | 500 to 5000 | – | – | – | – | –
20 | CC(=O)N1CCCN(c2nccc(-c3c[nH]c4ncc(Cl)cc34)n2)CC1 [Compound 5] | < 500 | < 500 | 500 to 5000 | – | – | – | – | –
21 | c1cncc(CNc2nccc(-c3c[nH]c4ncccc34)n2)c1 [Compound 6] | < 500 | < 500 | < 500 | – | – | – | – | –
22 | Clc1cnc2[nH]cc(-c3ccnc(N4CCCCCC4)n3)c2c1 [Compound 9] | < 500 | < 500 | 500 to 5000 | 500 to 5000 | 500 to 5000 | 500 to 5000 | 500 to 5000 | –
23 | CC(C)C[C@@H](CO)Nc1nccc(-c2c[nH]c3ncc(Cl)cc23)n1 [Compound 10] | < 500 | < 500 | < 500 | < 500 | – | – | – | –
24 | c1ccc(CNc2ccnc(-c3c[nH]c4ncccc34)n2)cc1 [Compound 11, Benzyl-[2-(1H-pyrrolo[2,3-b]pyridin-3-yl)-pyrimidin-4-yl]amine] | – | – | – | – | < 500 | < 500 | < 500 | –
25 | COc1cnc2[nH]cc(-c3cc(N[C@H](C)c4ccccc4)ncn3)c2c1 [Compound 13] | < 500 | < 500 | 500 to 5000 | – | – | – | – | –
26 | Fc1cccc(CNc2cc(-c3c[nH]c4ncccc34)ncn2)c1 [Compound 16] | < 500 | < 500 | < 500 | – | – | – | – | –
27 | c1ccc(-c2cccc(CNc3cc(-c4c[nH]c5ncccc45)ncn3)c2)cc1 [Compound 23] | 500 to 5000 | 500 to 5000 | < 500 | – | – | – | – | –
28 | Fc1ccc(CNc2cc(-c3c[nH]c4ncccc34)ncn2)cc1 [Compound 27] | < 500 | < 500 | < 500 | – | – | – | – | –
29 | Fc1cc(F)cc(CNc2cc(-c3c[nH]c4ncccc34)ncn2)c1 [Compound 29] | < 500 | < 500 | < 500 | – | – | – | – | –
30 | c1ccc(-c2cnc3[nH]cc(-c4ccccc4)c3c2)cc1 [Compound 213] | – | – | 500 to 5000 | < 500 | – | – | – | –
31 | COc1cccc(-c2c[nH]c3ncc(-c4ccccc4)cc23)c1 [Compound 214] | – | – | 500 to 5000 | 500 to 5000 | – | – | – | –
32 | CCOc1cccc(-c2c[nH]c3ncc(-c4ccccc4)cc23)c1 [Compound 215] | – | – | 500 to 5000 | 500 to 5000 | – | – | – | –
33 | CS(=O)(=O)c1cccc(-c2c[nH]c3ncc(-c4ccccc4)cc23)c1 [Compound 218] | – | – | < 500 | < 500 | – | – | – | < 500
34 | CN(C)C(=O)c1ccc(-c2c[nH]c3ncc(-c4ccccc4)cc23)cc1 [Compound 219] | – | – | 500 to 5000 | < 500 | – | – | – | 500 to 5000
